According to BindingDB's records for doi:10.1021/ja0466154 (Weizmann Institute of Science, 2004):

Assays:
[1] = biological target: Acetylcholinesterase (Electrophorus electricus, UniProt O42275); assay: Enzyme Inhibition Assay; details: pH 8; 22 °C
Method: (§1) The cholinesterase assays were performed using colorimetric method reported by Ellman. […] Each inhibitor was evaluated at several concentrations in the range from 1 nM to 20 uM.

[2] = biological target: Acetylcholinesterase (Tetronarce californica, UniProt P04058); assay: Enzyme Inhibition Assay; details: pH 8; 22 °C
Method: as §1

Chain of Acetylcholinesterase (Electrophorus electricus, UniProt O42275) (O42275 whole entry): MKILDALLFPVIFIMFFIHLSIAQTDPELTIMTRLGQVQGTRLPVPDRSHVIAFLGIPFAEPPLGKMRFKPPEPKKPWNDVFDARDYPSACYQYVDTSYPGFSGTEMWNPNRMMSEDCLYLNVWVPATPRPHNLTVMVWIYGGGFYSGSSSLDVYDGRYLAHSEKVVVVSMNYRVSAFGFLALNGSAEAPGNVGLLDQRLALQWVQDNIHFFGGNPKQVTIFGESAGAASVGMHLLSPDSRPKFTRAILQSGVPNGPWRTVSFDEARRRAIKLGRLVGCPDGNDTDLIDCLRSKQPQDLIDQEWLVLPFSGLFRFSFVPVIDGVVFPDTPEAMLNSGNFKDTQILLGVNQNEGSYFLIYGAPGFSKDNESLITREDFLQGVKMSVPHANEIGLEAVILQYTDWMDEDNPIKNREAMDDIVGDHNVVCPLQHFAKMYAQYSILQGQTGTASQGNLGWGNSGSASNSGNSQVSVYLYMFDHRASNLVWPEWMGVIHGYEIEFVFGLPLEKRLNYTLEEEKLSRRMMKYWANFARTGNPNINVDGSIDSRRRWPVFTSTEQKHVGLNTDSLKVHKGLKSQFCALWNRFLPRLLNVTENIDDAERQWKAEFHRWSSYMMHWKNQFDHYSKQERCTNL
Chain of Acetylcholinesterase (Tetronarce californica, UniProt P04058) (P04058 whole entry): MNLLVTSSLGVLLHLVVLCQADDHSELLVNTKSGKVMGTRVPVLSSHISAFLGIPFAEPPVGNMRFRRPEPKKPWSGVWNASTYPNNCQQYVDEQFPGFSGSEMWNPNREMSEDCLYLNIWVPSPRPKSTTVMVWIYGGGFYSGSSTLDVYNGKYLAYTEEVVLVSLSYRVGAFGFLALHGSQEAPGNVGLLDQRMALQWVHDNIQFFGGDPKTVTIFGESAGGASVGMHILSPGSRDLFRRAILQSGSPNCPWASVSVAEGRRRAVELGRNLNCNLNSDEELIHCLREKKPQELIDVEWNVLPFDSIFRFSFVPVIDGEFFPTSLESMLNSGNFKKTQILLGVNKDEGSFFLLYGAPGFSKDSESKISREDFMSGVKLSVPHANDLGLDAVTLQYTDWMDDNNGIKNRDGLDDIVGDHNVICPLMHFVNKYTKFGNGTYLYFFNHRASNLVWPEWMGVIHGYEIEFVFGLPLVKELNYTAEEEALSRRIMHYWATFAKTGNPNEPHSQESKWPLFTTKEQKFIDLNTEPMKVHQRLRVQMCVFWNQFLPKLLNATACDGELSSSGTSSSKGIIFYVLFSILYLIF

Row | SMILES | IC50 [1] | IC50 [2]
1 | C[N+]1=Cc2ccc(OCCCCCCCCN3C(=O)c4ccccc4C3=O)c3c2[C@@]2(C=C[C@H](O)C[C@@H]2O3)CC1 [(1S,12S,14R)-9-{[8-(1,3-dioxo-2,3-dihydro-1H-isoindol-2-yl)octyl]oxy}-14-hydroxy-4-methyl-11-oxa-4-azatetracyclo[8.6.1.0^{1,12}.0^{6,17}]heptadeca-4,6,8,10(17),15-pentaen-4-ium] | 203 nM | 499 nM
2 | COc1ccc2c3c1O[C@H]1C[C@@H](O)C=C[C@@]31CCN(CCCCCCCCN1C(=O)c3ccccc3C1=O)C2 [galanthamine deriv. 3d] | 72 nM | 38 nM
3 | COc1ccc2c3c1O[C@H]1C[C@@H](O)C=C[C@@]31CC[N+](CCCCCCCCN1C(=O)c3ccccc3C1=O)=C2 [(1S,12S,14R)-4-[8-(1,3-dioxo-2,3-dihydro-1H-isoindol-2-yl)octyl]-14-hydroxy-9-methoxy-11-oxa-4-azatetracyclo[8.6.1.0^{1,12}.0^{6,17}]heptadeca-4,6,8,10(17),15-pentaen-4-ium] | – | 4 nM
4 | COc1ccc2c3c1O[C@H]1C[C@@H](O)C=C[C@@]31CC[N+](C)=C2 [galanthamine deriv. 14] | 266 nM | 702 nM
